This note sets out measurements from US12252524B2, “GIP/GLP1 co-agonist compounds” (Eli Lilly and Company, priority 2018, dated 2025).

The EC50 is the midpoint of the concentration-response curve. The Ki is a measure of affinity in units of concentration, obtained from inhibition or displacement.

For assay [1], the target named is human GLP-1 receptor (GLP-1R) (Homo sapiens, UniProt P43220). Kind of assay: cAMP pharmacological functional assay in presence of casein, hGLP-1R. In kind it is cell-based.
The next assay has as its target T1, human GIP receptor (Homo sapiens, UniProt P48546).
T1 construct: expressed in transfected cells; crude membranes
T1 sequence (P48546 22-466): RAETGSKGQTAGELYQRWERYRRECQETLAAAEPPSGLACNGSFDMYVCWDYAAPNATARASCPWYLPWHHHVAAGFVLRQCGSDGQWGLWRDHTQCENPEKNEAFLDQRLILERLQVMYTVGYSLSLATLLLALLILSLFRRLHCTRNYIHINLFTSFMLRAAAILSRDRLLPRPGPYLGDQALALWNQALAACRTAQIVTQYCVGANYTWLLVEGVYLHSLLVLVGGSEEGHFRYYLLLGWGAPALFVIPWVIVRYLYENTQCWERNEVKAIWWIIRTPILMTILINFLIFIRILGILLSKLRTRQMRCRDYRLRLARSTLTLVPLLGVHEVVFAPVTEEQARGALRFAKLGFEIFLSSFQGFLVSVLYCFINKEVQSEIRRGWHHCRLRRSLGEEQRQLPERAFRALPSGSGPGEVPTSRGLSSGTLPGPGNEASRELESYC
Kind of assay: [125I]-GIP binding (SPA), human GIP receptor.

Assay [2] has as its target T2, human GLP-1R (Homo sapiens, UniProt P43220). Put plainly: GLP-1R HEK293 cell membrane [35S]GTPγS binding assay. In kind it is biochemical. On the set-up: expressed in transfected cells; host or cells: HEK293 cells expressing human GLP-1R; membranes. In short, it runs like this: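 Membranes from HEK293 cells expressing the receptor incubated with peptide and […] [35S]GTPγS in HEPES pH 7.4 buffer with NaCl, MgCl2, saponin and BSA, 30 min at room temperature. Gαs-bound label captured by anti-Gαs antibody/SPA beads and counted; EC50 from four-parameter logistic fit.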
A general note: Binding of GTPγS marks nucleotide exchange on a G protein.

The target of assay [3] is T2, human GLP-1R. Kind of assay: GLP-1R CHO cell β-arrestin recruitment assay. In kind it is cell-based. On the set-up: host or cells: CHO-K1 PathHunter cells, assay-ready frozen. As to conditions: for hGLP1R B-Arrestin2 % Top: normalized to GLP-1 maximum control. The gist of the method: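 PathHunter CHO-K1 cells with ProLink-tagged human GLP-1R and enzyme-acceptor-tagged β-arrestin-2 treated with serially diluted peptides in assay buffer containing 0.1% hydrolyzed casein, 90 min at 37 °C.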
For orientation: Activated receptors often draw arrestin, which recruitment assays turn into a signal.

The next assay has as its target T3, human Gcg receptor (Homo sapiens, UniProt P47871).
T3 construct: expressed in transfected cells; crude membranes
Kind of assay: [125I]-Glucagon binding (SPA), human Gcg receptor. In short, it runs like this: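 Cell pellets were lysed in hypotonic Tris buffer, pH 7.5, homogenized, and spun at low then high speed to give crude membranes. Ki was derived from the fitted IC50.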

The target in assay [4] is T4, gastric inhibitory peptide receptor (GIPR) (Homo sapiens, UniProt P48546).
T4 sequence (P48546 22-466): T1 sequence (P48546 22-466)
Put plainly: cAMP pharmacological functional assay in presence of casein, hGIPR. In kind it is cell-based.

The target in assay [5] is T2, human GLP-1R. Kind of assay: [125I]-GLP-1 binding (SPA), human GLP-1 receptor. Also noted: expressed in transfected cells; crude membranes. The gist of the method: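 Ki values are geometric means with SEM over independent replicates on different days, derived from IC50s fitted by four-parameter nonlinear regression. The assay used crude cell membranes in HEPES buffer, pH 7.4, containing CaCl2, MgCl2, bacitracin and TWEEN-20.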

The mark [6] stands for this setting: HEK293 cells expressing hGLP-1R, 0.1% Casein, geometric mean, read-out: hGLP1R cAMP Rel EC50 nM (SEM, n).
Setting [7] is: read-out: hGIPR Ki, nM (SEM, n).
Where [8] appears, read: HEK293 cell membranes expressing human GLP-1R, [35S]GTPγS binding, read-out: hGLP1R GTPgS Rel EC50 nM (SEM, n).
The mark [9] stands for this setting: CHO-K1 cells, PathHunter β-arrestin-2 recruitment, 0.1% casein, read-out: hGLP1R B-Arrestin2 Rel EC50 uM (SEM, n).
Setting [10] is: read-out: hGLcgR Ki, nM (SEM, n).
The mark [11] stands for this setting: HEK293 cells expressing hGIPR, 0.1% Casein, geometric mean, read-out: hGIPR cAMP Rel EC50 nM (SEM, n).
Setting [12] is: read-out: hGLP1R Ki, (nM) (SEM, n).

Structures are written as SMILES. Where two headings read alike, the source gives them in different places. Numbered stars: 1 amine (or outer) side, 2 acyl side, 3 side chain; on linkers, the order of the positions; unused ones are H or OH. Square brackets hold non-standard residues; d marks the D form. Side chains are listed from the residue outwards. Peptide text beside a SMILES is read from it. * marks the point of attachment. C20 diacid = O=C(O)CCCCCCCCCCCCCCCCCCC(=O)*; γGlu = O=C(O)[C@H](CCC(=O)[*:2])N[*:1]; αMeL = CC(C)C[C@](C)(N)C(=O)O; Orn = NCCC[C@H](N)C(=O)O; AEEA = NCCOCCOCC(=O)O; Aib = CC(C)(N)C(=O)O

T3 sequence (P47871 26-477): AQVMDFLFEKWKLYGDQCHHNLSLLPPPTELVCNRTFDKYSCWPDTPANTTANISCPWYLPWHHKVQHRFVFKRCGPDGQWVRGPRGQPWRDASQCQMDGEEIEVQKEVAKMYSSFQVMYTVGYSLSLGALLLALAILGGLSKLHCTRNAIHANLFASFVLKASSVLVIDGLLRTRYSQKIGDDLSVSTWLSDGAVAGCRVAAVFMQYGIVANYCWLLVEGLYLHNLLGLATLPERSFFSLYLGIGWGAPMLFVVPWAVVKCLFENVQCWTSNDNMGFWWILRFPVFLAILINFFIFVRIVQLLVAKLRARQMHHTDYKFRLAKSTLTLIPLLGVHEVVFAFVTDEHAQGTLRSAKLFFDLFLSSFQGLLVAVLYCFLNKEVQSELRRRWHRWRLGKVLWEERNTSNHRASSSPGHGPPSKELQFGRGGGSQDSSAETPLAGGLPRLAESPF
T2 sequence (P43220 24-463): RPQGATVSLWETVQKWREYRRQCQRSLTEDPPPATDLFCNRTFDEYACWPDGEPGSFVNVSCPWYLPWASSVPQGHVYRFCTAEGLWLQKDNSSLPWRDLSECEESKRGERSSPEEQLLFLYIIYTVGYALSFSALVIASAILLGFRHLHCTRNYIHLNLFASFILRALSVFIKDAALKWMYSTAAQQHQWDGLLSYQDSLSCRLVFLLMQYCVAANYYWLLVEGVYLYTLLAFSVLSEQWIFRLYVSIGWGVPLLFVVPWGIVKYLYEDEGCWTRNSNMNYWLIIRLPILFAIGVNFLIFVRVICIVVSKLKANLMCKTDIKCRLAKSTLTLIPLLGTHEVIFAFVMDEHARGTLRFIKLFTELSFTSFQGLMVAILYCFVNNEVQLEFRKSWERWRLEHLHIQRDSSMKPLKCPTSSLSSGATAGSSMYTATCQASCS
Chain of human GLP-1 receptor (GLP-1R) (P43220 24-463): as above

Turning to `CC[C@H](C)[C@H](NC(=O)[C@H](CC(C)C)NC(=O)[C@H](Cc1ccc(O)cc1)NC(=O)[C@H](CCC(=O)O)NC(=O)[C@@H](NC(=O)[C@H](Cc1ccccc1)NC(=O)[C@H](CCC(=O)O)NC(=O)C(C)(C)NC(=O)[C@H](CCC(N)=O)NC(=O)[C@H](C)NC(=O)[C@H](CCCCNC(=O)COCCOCCNC(=O)CC[C@H](NC(=O)CCCCCCCCCCCCCCCCCCC(=O)O)C(=O)O)NC(=O)[C@H](CCCCN)NC(=O)[C@H](CC(=O)O)NC(=O)[C@H](CC(C)C)NC(=O)[C@](C)(CC(C)C)NC(=O)[C@@H](NC(=O)[C@H](CO)NC(=O)[C@H](Cc1ccc(O)cc1)NC(=O)[C@H](CC(=O)O)NC(=O)[C@H](CO)NC(=O)[C@@H](NC(=O)[C@H](Cc1ccccc1)NC(=O)[C@@H](NC(=O)CNC(=O)[C@H](CCC(=O)O)NC(=O)C(C)(C)NC(=O)[C@@H](N)Cc1ccc(O)cc1)[C@@H](C)O)[C@@H](C)O)[C@@H](C)CC)[C@@H](C)CC)C(=O)N[C@@H](C)C(=O)NCC(=O)NCC(=O)N1CCC[C@H]1C(=O)N[C@@H](CO)C(=O)N[C@@H](CO)C(=O)NCC(=O)N[C@@H](C)C(=O)N1CCC[C@H]1C(=O)N1CCC[C@H]1C(=O)N1CCC[C@H]1C(=O)N[C@@H](CO)C(N)=O` [Example 339] (H-Y[Aib]EGTFTSDYSI[αMeL]LDKK([AEEA-γGlu-C20 diacid])AQ[Aib]EFIEYLIAGGPSSGAPPPS-NH2), the EC50 was 0.0986 nM in assay [1] (setting [6]), 0.326 nM on human GLP-1R [2] (setting [8]), 0.0107 µM at human GLP-1R [3] (setting [9]) and 0.0219 nM in assay [4] (setting [11]). Further, the results for the Ki on human GIP receptor (setting [7]), at human Gcg receptor (setting [10]) and on human GLP-1R [5] (setting [12]) were 0.0388 nM, 873 nM and 2.69 nM, respectively. The “hGLP1R B-Arrestin2 % Top” value on human GLP-1R [3] is on record as 44.0%.

Turning to `CC[C@H](C)[C@H](NC(=O)[C@H](CC(C)C)NC(=O)[C@H](Cc1ccc(O)cc1)NC(=O)[C@@H](CCC(=O)O)NC(=O)[C@@H](NC(=O)[C@H](Cc1ccccc1)NC(=O)[C@H](C)NC(=O)C(C)(C)NC(=O)[C@H](CCC(N)=O)NC(=O)[C@H](C)NC(=O)[C@H](CCCCNC(=O)COCCOCCNC(=O)COCCOCCNC(=O)CC[C@H](NC(=O)CCCCCCCCCCCCCCCCCCC(=O)O)C(=O)O)NC(=O)[C@H](CCC(=O)O)NC(=O)[C@H](CC(=O)O)NC(=O)[C@H](CC(C)C)NC(=O)[C@](C)(CC(C)C)NC(=O)[C@@H](NC(=O)[C@H](CO)NC(=O)[C@H](Cc1ccc(O)cc1)NC(=O)[C@H](CC(=O)O)NC(=O)[C@H](CO)NC(=O)[C@@H](NC(=O)[C@H](Cc1ccccc1)NC(=O)[C@@H](NC(=O)CNC(=O)[C@H](CCC(=O)O)NC(=O)C(C)(C)NC(=O)[C@@H](N)Cc1ccc(O)cc1)[C@@H](C)O)[C@@H](C)O)[C@@H](C)CC)[C@@H](C)CC)C(=O)N[C@@H](C)C(=O)NCC(=O)NCC(=O)N1CCC[C@H]1C(=O)N[C@@H](CO)C(=O)N[C@@H](CO)C(=O)NCC(=O)N[C@@H](C)C(=O)N1CCC[C@H]1C(=O)N1CCC[C@H]1C(=O)N1CCC[C@H]1C(=O)N[C@@H](CO)C(N)=O` [Example 343] (H-Y[Aib]EGTFTSDYSI[αMeL]LDEK([AEEA-AEEA-γGlu-C20 diacid])AQ[Aib]AFI[dE]YLIAGGPSSGAPPPS-NH2), the EC50 in assay [1] (setting [6]) came out at 0.124 nM; at human GLP-1R [2] (setting [8]), 0.522 nM; at human GLP-1R [3] (setting [9]) it was 0.0455 µM; in assay [4] (setting [11]), 0.0422 nM. The Ki is 0.0374 nM on human GIP receptor (setting [7]), over 1070 nM on human Gcg receptor (setting [10]) and 13.3 nM at human GLP-1R [5] (setting [12]). In addition, the “hGLP1R B-Arrestin2 % Top” value on human GLP-1R [3] came out at 41.4%.

Regarding `CC[C@H](C)[C@H](NC(=O)[C@H](CC(C)C)NC(=O)[C@H](Cc1ccc(O)cc1)NC(=O)[C@H](CCC(=O)O)NC(=O)[C@@H](NC(=O)[C@H](Cc1ccccc1)NC(=O)[C@H](C)NC(=O)C(C)(C)NC(=O)[C@H](CCC(N)=O)NC(=O)[C@H](C)NC(=O)[C@H](CCCCNC(=O)COCCOCCNC(=O)COCCOCCNC(=O)CC[C@H](NC(=O)CCCCCCCCCCCCCCCCCCC(=O)O)C(=O)O)NC(=O)[C@H](CCCCN)NC(=O)[C@H](CC(=O)O)NC(=O)[C@H](CC(C)C)NC(=O)[C@](C)(CC(C)C)NC(=O)[C@@H](NC(=O)[C@H](CO)NC(=O)[C@H](Cc1ccc(O)cc1)NC(=O)[C@H](CC(=O)O)NC(=O)[C@H](CO)NC(=O)[C@@H](NC(=O)[C@](C)(Cc1ccccc1F)NC(=O)[C@@H](NC(=O)CNC(=O)[C@H](CCC(=O)O)NC(=O)C(C)(C)NC(=O)[C@H](N)Cc1ccc(O)cc1)[C@@H](C)O)[C@@H](C)O)[C@@H](C)CC)[C@@H](C)CC)C(=O)N[C@@H](CCC(=O)O)C(=O)NCC(=O)NCC(=O)N1CCC[C@H]1C(=O)N[C@@H](CO)C(=O)N[C@@H](CO)C(=O)NCC(=O)N[C@@H](C)C(=O)N1CCC[C@H]1C(=O)N1CCC[C@H]1C(=O)N1CCC[C@H]1C(=O)N[C@@H](CO)C(N)=O` [Example 336], the EC50 came out at 0.0874 nM in assay [1], 0.377 nM at human GLP-1R [2], 0.00778 µM at human GLP-1R [3] and 0.0312 nM in assay [4]. Also, the figures for the Ki at human GIP receptor, on human Gcg receptor and at human GLP-1R [5] were 0.0277 nM, 17.1 nM and 2.44 nM, respectively. The “hGLP1R B-Arrestin2 % Top” value on human GLP-1R [3] is recorded as 82.5%.

Turning to `CC[C@H](C)[C@H](NC(=O)[C@H](CC(C)C)NC(=O)[C@H](Cc1ccc(O)cc1)NC(=O)[C@@H](CCC(=O)O)NC(=O)[C@@H](NC(=O)[C@H](Cc1ccccc1)NC(=O)[C@H](C)NC(=O)C(C)(C)NC(=O)[C@H](CCC(N)=O)NC(=O)[C@H](C)NC(=O)[C@H](CCCCNC(=O)COCCOCCNC(=O)COCCOCCNC(=O)CC[C@H](NC(=O)CCCCCCCCCCCCCCCCCCC(=O)O)C(=O)O)NC(=O)[C@H](CCCN)NC(=O)[C@H](CC(=O)O)NC(=O)[C@H](CC(C)C)NC(=O)[C@](C)(CC(C)C)NC(=O)[C@@H](NC(=O)[C@H](CO)NC(=O)[C@H](Cc1ccc(O)cc1)NC(=O)[C@H](CC(=O)O)NC(=O)[C@H](CO)NC(=O)[C@@H](NC(=O)[C@H](Cc1ccccc1)NC(=O)[C@@H](NC(=O)CNC(=O)[C@H](CCC(=O)O)NC(=O)C(C)(C)NC(=O)[C@H](N)Cc1ccc(O)cc1)[C@@H](C)O)[C@@H](C)O)[C@@H](C)CC)[C@@H](C)CC)C(=O)N[C@@H](C)C(=O)NCC(=O)NCC(=O)N1CCC[C@H]1C(=O)N[C@@H](CO)C(=O)N[C@@H](CO)C(=O)NCC(=O)N[C@@H](C)C(=O)N1CCC[C@H]1C(=O)N1CCC[C@H]1C(=O)N1CCC[C@H]1C(=O)N[C@@H](CO)C(N)=O` [Example 291] (H-[dY][Aib]EGTFTSDYSI[αMeL]LD[Orn]K([AEEA-AEEA-γGlu-C20 diacid])AQ[Aib]AFI[dE]YLIAGGPSSGAPPPS-NH2), the EC50 in assay [1] (setting [6]) is 0.15 nM; on human GLP-1R [2] (setting [8]), 0.466 nM; on human GLP-1R [3] (CHO-K1 cells, 0.1% w/v hydrolyzed Casein, read-out: hGLP1R B-Arrestin2 Rel EC50), over 10 µM; on human GLP-1R [3] (setting [9]), over 10 µM; in assay [4] (setting [11]), 0.118 nM. Further, the Ki on human GIP receptor (setting [7]) is 0.129 nM; on human Gcg receptor (setting [10]), over 872 nM; on human GLP-1R [5] (setting [12]), 3.16 nM.
